# Reference: ChEMBL document CHEMBL1147953, “9-Nitroanthracene derivative as a precursor of anthraquinone for photodynamic therapy” (Bioorg Med Chem, 2007)
# Active and inactive are the calls of the source. The rule behind the calls is not given here.
# Tests used:
# Escherichia coli [1] = experiment: Induction of strand cleavage in pBR322 DNA in absence of irradiation assessed as conversion of supercoiled DNA to […] circular form at 200 uM
# Escherichia coli [2] = experiment: Induction of strand cleavage in pBR322 DNA after irradiation with 5 J/cm^2 assessed as conversion of supercoiled DNA to […] circular form at 200 uM
Compound,Activity (Escherichia coli [1]),Activity (Escherichia coli [2])
CN(C)CCCC(=O)Nc1ccc2cc3ccccc3cc2c1[N+](=O)[O-],inactive,Active
CN(C)CCCC(=O)Nc1ccc2cc3ccccc3c([N+](=O)[O-])c2c1,inactive,Active
